According to patent US20190211317A1, “PEPTIDES AND NANOPARTICLES FOR INTRACELLULAR DELIVERY OF GENOME-EDITING MOLECULES” (Aadigen, LLC, priority 2016, published 2019):
Values joined by “and” are separate entries in the source; they are usually repeats but may differ in a detail not shown here. Equal values may be shown once. No end group written: not given here.

Legend:
[1] = test system: endogenous hPD1 gene in JURKAT and K562 cells; test: hPD1 gene editing in T cell lines (T7E1 assay); format: cell-based, human; conditions: CAS9/sgRNA 5 μg/10 μg
Procedure: CAS9 protein was preloaded with purified sgRNA at a molar ratio of 1:1 and incubated for 10 min prior to forming complexes with peptides.
5×10^6 cells were washed twice with DPBS by centrifuging at 800 rpm for 5 minutes and resuspended in 100 ^l transfection buffer, and then transferred into the electroporation cuvette. An optimized program selected for both high transfection and high efficiency on T cells was used. After electroporation, cells were resuspended in 500 ^l pre-warmed AIM-V medium containing 10% FBS and incubated at 37° C. in 5% CO2. The transfection efficiency was evaluated after 48 hr by flow cytometry or T7E1 assay.
RNAiMAX delivery method was used as positive control. Cells were either resuspended in or overlaid with 100 μl of preformed complexes, incubated for 3-5 min, and then 300 μl of DMEM was added. […] The indel frequency in the hPD1 gene was quantified using the T7E1 assay.

[2] = test system: hPD1 gene in human T cells; test: hPD1 gene editing in primary human T cells (T7E1 assay); format: cell-based
Procedure: T cells were isolated from PBMCs (2 different donors) using anti-CD3/anti-CD28 antibodies bound to paramagnetic beads (Dynabeads ClinExVivo CD3/CD28, Invitrogen) at a ratio of 3:1 (beads:cells). The cells and beads were co-incubated for 2 hours at room temperature and CD3′ cell enrichment was performed using Dynal ClinExVIVO MPC magnet (Thermo Fisher). The anti-CD3/anti-CD28 paramagnetic beads were removed, washed and concentrated. Cells in the CD3′ fraction were resuspended in activation media at a concentration of 1×10^6 cells/ml with AIM-V medium (Thermo Fishers) supplemented with 10% fetal calf serum, 300 IU/ml IL2 and 50 ng/ml OKT3 (MuromonAB-CD3) for two days.
Cells were transfected by electroporation with CD-19 plasmid or gRNA/CAS9 (5 μg/10 μg) using a Nucleofector 2b (Lonza, Germany) with the Amaxa Human T cells Nucleofector Kit, VPA-1002 (Lonza, Germany). 5×10^6 cells were washed twice with DPBS by centrifuging at 800 rpm for 5 minutes and resuspended in 100 ^l transfection buffer, and then transferred into the electroporation cuvette. An optimized program selected for both high transfection and high efficiency on T cells was used. After electroporation, cells were resuspended in 500 ^l pre-warmed AIM-V medium containing 10% FBS and incubated at 37° C. in 5% CO2. The transfection efficiency was evaluated after 48 hr by flow cytometry or T7E1 assay.
As control, CAS9 loaded with gRNA targeting GFP was used.
Cells were returned to the incubator for 72 hours. CAS9-induced double-strand break followed by repair through non-homologous end joining (NHEJ) was analyzed by either the T7E1 assay or using the Genome Cleavage Detection kit (GCD Thermo Fisher) and quantified using Fragment Analyzer System. The indel frequency in the target gene was quantified using the T7E1 assay. The cultures were expanded and analyzed for viability and PD1 levels every 10 days. T cell expansion medium contained AIM V medium, supplemented with 5% heat-inactivated human AB Serum, 1% Gluta-Max, and 300 IU/mL IL-2.

[3] = CPP/CAS9 and CPP/CAS9:gRNA particle size, polydispersity, zeta potential (Zetasizer 4); format: physicochemical
Procedure: The CPP/CAS9 and CPP/CAS9/sgRNA particles were further characterized; the mean size, polydispersity and zeta potential were measured with Zetasizer 4 apparatus (Malvern Ltd). […] The mean size and the polydispersity of the CCP/CAS9 and CCP/CAS9:gRNA complexes were determined at 25° C. for 3 min per measurement and zeta potential was measured with Zetasizer 4 apparatus (Malvern Ltd).

[4] = test system: EGFP reporter gene in EGFP-U2OS, EGFP-HEK, EGFP-JURKAT cells; test: EGFP reporter gene disruption from CPP delivery of CAS9:sgRNA (flow cytometry); format: cell-based, human; conditions: for reduction of EGFP-positive cells: EGFP-JURKAT; for decrease in EGFP expression: CAS9:gRNA 50 nM, CPP:cargo 20:1; for reduction of EGFP-expressing cells / loss of EGFP expression: JURKAT;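 for all read-outs here: cells carrying one integrated EGFP reporter received peptide-complexed CAS9 preloaded 1:1 with EGFP sgRNA, cultured 72 h, then EGFP level read by flow cytometry, lipofectamine 2000 and RNAiMAX as positive controls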
Procedure: Efficacy of CPP-mediated delivery was quantified using a well-established CAS9-induced gene disruption method (Fu et al, 2013, supra), by targeting a specific site in the exogenous EGFP gene reporter in three human cell lines expressing EGFP (GFP-U2OS, EGFP-HEK, EGFP-JURKAT).
Stock solutions of amphipathic peptides were prepared at 1 mg/mL in distilled water and sonicated for 10 min. CAS9 protein was preloaded with purified EGFP sgRNA at a molar ratio of 1:1 and incubated for 10 min prior to forming complexes with the peptides. Preloaded CAS9/gRNA complexes (10 nM, 25 nM, and 50 nM) were mixed with CPPs at 5:1, 10:1 and 20:1 molar ratios of CPP to cargo and incubated for 30 min at 37° C. prior to cell transfection.
Cell line containing a single integrated EGFP reporter gene (GFP-U2OS, EGFP-HEK and EGFP-JURKAT) were cultured in Dulbecco's Modified Eagle's Medium (DMEM), supplemented with 2 mM glutamine, 1% antibiotics (streptomycin 10,000 μg/mL, penicillin, 10,000 IU/mL) and 10% (w/v) foetal calf serum (FCS) at 37° C. in a humidified atmosphere containing 5% CO2. A total of 150,000 cells seeded in a 35 mm dish the day prior to transfection were grown to 50-60% confluence and overlaid with 200 μl of preformed complexes, incubated for 3-5 min, then 400 μl of DMEM was added. After 30 min incubation at 37° C., 1 mL of fresh DMEM containing 16% FCS was added to reach a final FCS concentration of 10%, without removing the overlay of CPP/CAS9-gRNA complexes. Cells were returned to the incubator for 72 hours.
CAS9-induced double-strand break formation was analyzed using flow cytometry by monitoring level of EGFP expression. […] Both lipofectamine 2000 and RNAiMAX delivery methods were used as positive controls.

[5] = test system: endogenous EMX1, AAVS and HPRT genes in Mouse (ESF-158) embryonic stem cells; test: Delivery of multiple RGEN:gRNA complexes: EMX1, AAVS, HPRT editing in mouse ES cells (T7E1); format: cell-based
Procedure: (§1) RNAiMAX delivery method was used as a positive control.
(§2) U2OS cells were treated as described previously. H9 embryonic stem cells were cultured in Dulbecco's modified Eagle's medium with 4 mM L-glutamine adjusted to contain 1.5 g/L sodium bicarbonate and 4.5 g/L glucose and supplemented with 0.1 mM 2-mercaptoethanol, 85%; and 15% ES-Cell Qualified fetal bovine serum. […] CAS9-induced double-strand break formation followed by repair through NHEJ was analyzed 72 hr after transfection by T7E1 assay and quantified using Fragment Analyzer System. The deletion (indel) frequencies in EMX1, AAVS and HPRT genes were quantified using T7E1 assay. Data for on-target mutations induced by RGEN:gRNA are reported as an average of 3 separate experiments.

[6] = test system: EGFP-U2OS, EGFP-HEK, EGFP-JURKAT cells; test: Toxicity of CPP/CAS9/gRNA complexes (MTT assay); format: cell-based; conditions: three cell lines; concentrations up to 100 nM; 24 h
Procedure: The robust EGFP disruption observed in the three cell lines was found not to be the result of cellular toxicity. […] A total of 30,000 cells seeded in 24-well plates the day prior to transfection were incubated with increasing concentrations of CPP/CAS9/gRNA (complexed at a 10:1 or 20:1 molar ratio of CPP to preloaded CAS9/gRNA complex) ranging from 1 to 200 nM for 30 min prior to addition of medium to reach a final 10% concentration of FCS. Cytotoxic response was measured 24 hours later by colorimetric MTT assay (Sigma, Germany). For MTT assay, cell culture medium was removed and replaced with PBS containing 2.5 mg/ml MTT for 4 hours. Results correspond to the average of 3 separate experiments. […] Viability was reduced by less than 10% at 200 nM. In contrast, at […] for Lipofectamine 2000 or RNAiMAX, between 60-70% and 20-25% cell death was observed, depending on cell line. Moreover, both lipid methods appeared to be highly toxic on JURKAT cells, inducing 75% (lipofectamine 2000) or 45% (RNAiMAX) cell death.

[7] = test system: endogenous EMX1 and exogenous EGFP reporter genes in GFP-U2OS, EGFP-JURKAT cells; test: Delivery of multiple RGEN/gRNA complexes: EMX1 and EGFP editing; format: cell-based, human
Procedure: RNAiMAX delivery was used as positive control. Cells were treated as described previously and CAS9-induced NHEJ analyzed 72 hr after transfection. […] The deletion (indel) frequency in the EMX1 gene was quantified using the T7E1 assay and loss of EGFP expression was monitored by flow cytometry. Data for on-target mutations induced by RGEN/gRNA are reported as an average of 3 separate experiments.

[8] = test system: endogenous EMX1, AAVS and HPRT genes in U2OS and Human (H9) embryonic stem cells; test: Delivery of multiple RGEN:gRNA complexes: EMX1, AAVS, HPRT editing in U2OS and H9 ES cells (T7E1); format: cell-based
Procedure: as §1, §2

[9] = test system: endogenous EMX1 gene in U2OS, JURKAT and K562 cells; test: EMX1 gene editing from CPP delivery of CAS9/gRNA (T7E1 assay); format: cell-based, human
Procedure: RNAiMAX delivery was used as a positive control as it was previously reported to show better results than Lipofectamine 2000 (Zuris et al., 2015, supra). […] Cells were returned to the incubator for 72 hours.

## GLWRALWRLLRSLWRLLWKV [CADY, reference compound]
[1]; JURKAT
  Mean indel Frequency ± s.e.m: 12 ± 9%
[1]; K562
  Mean indel Frequency ± s.e.m: 15 ± 9%
[2]; Donor 1, CAS9/sgRNA 2.5 μg/5 μg
  Mean indel Frequency ± s.e.m: 0%
[2]; Donor 1, CAS9/sgRNA 5 μg/10 μg
  Mean indel Frequency ± s.e.m: 0%
[2]; Donor 2, CAS9/sgRNA 2.5 μg/5 μg
  Mean indel Frequency ± s.e.m: 0%
[2]; Donor 2, CAS9/sgRNA 5 μg/10 μg
  Mean indel Frequency ± s.e.m: 0%
[2]; T cells from the two donors, 5 μg/10 μg CAS9/gRNA
  mean indel frequency of hPD1 gene: No editing
[3]
  complex formation with CAS9: did not form any complex
[3]; Cas9:gRNA, molar ratio 20/1
  PI: 0.6 and 0.6 ± 0.2
  Size: 350±20 nm
  zeta: 45 ± 8 MV
[3]; molar ratio 10:1
  formation of stable particles with preloaded CAS9:gRNA complex: neither CADY nor VEPEP-9 formed stable particles
[4]
  reduction of EGFP-positive cells: 18%
[4]; HEK
  decrease in EGFP expression: 42%
[4]; 1 nM CAS9:gRNA
  reduction of EGFP-expressing cells / loss of EGFP expression: no change in EGFP expression
[4]; U2OS
  decrease in EGFP expression: 33%
[4]; both cell lines (U2OS, HEK), 1 nM CAS9:gRNA
  loss of EGFP expression: no change in EGFP expression

## N=C(N)NCCC[C@H](NC(=O)[C@H](CCCNC(=N)N)NC(=O)[C@H](CCCCN)NC(=O)[C@H](CCCNC(=N)N)NC(=O)[C@@H]1CCCN1C(=O)[C@H](Cc1c[nH]c2ccccc12)NC(=O)[C@H](CCC(=O)O)NC(=O)[C@H](CCCNC(=N)N)NC(=O)[C@H](Cc1c[nH]c2ccccc12)NC(=O)[C@H](Cc1c[nH]c2ccccc12)NC(=O)[C@H](CCCNC(=N)N)NC(=O)[C@H](CCC(=O)O)NC(=O)[C@H](Cc1c[nH]c2ccccc12)NC(=O)[C@H](Cc1c[nH]c2ccccc12)NC(=O)[C@H](CCCCN)NC(=O)CCN)C(=O)O [VEPEP-3b]
[5]; AAVS
  Mean indel Frequency ± S.E.M: 79 ± 5%
[5]; EMX1
  Mean indel Frequency ± S.E.M: 84 ± 6%
[5]; HPRT
  Mean indel Frequency ± S.E.M: 85 ± 7%
[6]
  toxicity: no toxicity
[7]; JURKAT, EGFP
  Mean indel Frequency ± S.E.M: 84 ± 7%
[7]; JURKAT, EMX1
  Mean indel Frequency ± S.E.M: 79 ± 7%
[7]; U2OS, EGFP, 25 nM each complex
  Mean indel Frequency ± S.E.M: 80 ± 5%
[7]; U2OS, EMX1
  Mean indel Frequency ± S.E.M: 82 ± 6%
[8]; H9, AAVS
  Mean indel Frequency ± S.E.M: 71 ± 7%
[8]; H9, EMX1
  Mean indel Frequency ± S.E.M: 67 ± 6%
[8]; H9, HPRT
  Mean indel Frequency ± S.E.M: 70 ± 4%
[8]; U2OS, AAVS
  Mean indel Frequency ± S.E.M: 75 ± 7%
[8]; U2OS, EMX1, 20 nM each complex
  Mean indel Frequency ± S.E.M: 82 ± 5%
[8]; U2OS, HPRT
  Mean indel Frequency ± S.E.M: 84 ± 6%
[9]; JURICAT, CAS9/sgRNA 25 nM
  Mean indel Frequency ± S.E.M: 69% and 69 ± 8%
[9]; JURKAT, CAS9/sgRNA 50 nM
  Mean indel Frequency ± S.E.M: 71 ± 5%
[9]; K562, CAS9/sgRNA 25 nM
  Mean indel Frequency ± S.E.M: 79% and 79 ± 5%
[9]; K562, CAS9/sgRNA 50 nM
  Mean indel Frequency ± S.E.M: 81 ± 7%
[9]; U2OS, CAS9/sgRNA 25 nM, 20:1
  Mean indel Frequency ± S.E.M: 75% and 75 ± 7%
[9]; U2OS, CAS9/sgRNA 50 nM
  Mean indel Frequency ± S.E.M: 77 ± 5%
[3]; Cas9:gRNA, molar ratio 10/1
  PI: 0.35 ± 0.1
  Size: 38 ± 4 nm
  zeta: 27.0 ± 4 MV
[3]; Cas9:gRNA, molar ratio 20/1
  PI: 0.37 ± 0.1
  Size: 51 ± 5 nm
  zeta: 25.3 ± 7 MV
[3]; Cas9, molar ratio 10/1
  Pt: 0.33 ± 0.1
  zeta: 21.0 ± 5 mV
[3]; Cas9, molar ratio 10/1, 0.9% NaCl
  Size: 45 ± 5 nm
[3]; Cas9, molar ratio 20/1
  Pt: 0.35 ± 0.1
  Size: 52 ± 5 nm
  zeta: 17.0 ± 5 mV
[3]; with CAS9 and CAS9:gRNA complex, molar ratio 10:1 or 20:1
  formation of stable nanoparticles: able to form stable nanoparticles
[3]; with CAS9 and CAS9:gRNA, molar ratio 10:1 or 20:1
  Mean diameter: about 50 nm
[4]
  reduction of EGFP-positive cells: 87%
[4]; HEK, 1 nM CAS9:gRNA
  reduction of number of EGFP-expressing cells: 71%
[4]; HEK
  decrease in EGFP expression: 93%
[4]; 1 nM CAS9:gRNA
  reduction of EGFP-expressing cells / loss of EGFP expression: 55%
[4]; U2OS, 1 nM CAS9:gRNA
  reduction of number of EGFP-expressing cells: 68%
[4]; U2OS
  decrease in EGFP expression: 92%
